{
  "source": "patent US20130143897A1",
  "about": "“ORAL CONTROLLED RELEASE PHARMACEUTICAL COMPOSITIONS OF BLONANSERIN” (LUPIN LIMITED, priority 2010, published 2013)",
  "origin": "cited, not measured here",
  "key": {"dopamine (D2) receptors": {"biological_target": "dopamine (D2) receptors (Homo sapiens, UniProt P14416)", "sequence (P14416 whole entry)": "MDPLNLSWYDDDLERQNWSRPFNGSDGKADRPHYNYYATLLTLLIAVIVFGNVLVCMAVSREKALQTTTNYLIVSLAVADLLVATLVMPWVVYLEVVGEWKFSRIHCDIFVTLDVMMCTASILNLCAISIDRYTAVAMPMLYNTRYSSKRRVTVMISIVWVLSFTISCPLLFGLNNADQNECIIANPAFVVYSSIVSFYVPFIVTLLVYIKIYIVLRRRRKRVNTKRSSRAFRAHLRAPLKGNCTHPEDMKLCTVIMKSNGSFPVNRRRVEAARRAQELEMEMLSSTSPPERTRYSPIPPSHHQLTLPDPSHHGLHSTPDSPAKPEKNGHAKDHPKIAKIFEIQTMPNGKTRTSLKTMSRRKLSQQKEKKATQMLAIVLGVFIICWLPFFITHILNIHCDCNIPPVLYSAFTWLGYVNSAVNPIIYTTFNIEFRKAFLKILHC"}, "serotonin (S2) receptors": {"biological_target": "serotonin (S2) receptors (Homo sapiens, UniProt P28223)", "sequence (P28223 whole entry)": "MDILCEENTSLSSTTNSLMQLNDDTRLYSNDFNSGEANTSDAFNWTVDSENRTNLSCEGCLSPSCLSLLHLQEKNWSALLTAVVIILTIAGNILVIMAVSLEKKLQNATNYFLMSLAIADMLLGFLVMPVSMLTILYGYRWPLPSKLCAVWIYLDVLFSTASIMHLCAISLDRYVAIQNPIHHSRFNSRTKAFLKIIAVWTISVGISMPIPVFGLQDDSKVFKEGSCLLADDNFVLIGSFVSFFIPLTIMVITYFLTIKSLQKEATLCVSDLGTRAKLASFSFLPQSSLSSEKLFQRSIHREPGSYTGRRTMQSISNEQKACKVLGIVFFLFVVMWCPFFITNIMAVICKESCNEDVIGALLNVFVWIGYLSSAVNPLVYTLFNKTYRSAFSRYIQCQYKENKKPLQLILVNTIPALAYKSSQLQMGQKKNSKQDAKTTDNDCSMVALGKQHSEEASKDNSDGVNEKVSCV"}},
  "data": [
    {"smiles": "CCN1CCN(c2cc(-c3ccc(F)cc3)c3c(n2)CCCCCC3)CC1", "note": "[Blonanserin, 2-(4-Ethyl-1-piperazinyl)-4-(4-fluorophenyl)-5,6,7,8,9,10-hexahydrocycloocta[b]pyridine]", "values": [
      {"measurement": "binding property to dopamine (D2) receptors", "setting": "dopamine (D2) receptors", "value": "potent"},
      {"measurement": "solubility in water", "value": "poor"},
      {"measurement": "binding property to serotonin (S2) receptors", "setting": "serotonin (S2) receptors", "value": "potent"}
    ]}
  ]
}
